Experimental data as given in patent US11447505B1, “Pyrrolo[2,3-b]pyridine compounds and their use in the treatment of cancer” (priority 2017, dated 2022).

Tests used:
[1] = target: MRCKα (Homo sapiens (Human), UniProt Q5VT25); assay: MRCKα kinase assay (IMAP fluorescence polarization); assay type: biochemical; conditions: 1 μM ATP; read-out: MRCK-a Average Ki
Text: (§1) MRCKα, MRCKβ, ROCK1 and ROCK2 Kinase Assays

[2] = target: MRCKβ (Homo sapiens (Human), UniProt Q9Y5S2); assay: MRCKβ kinase assay (IMAP fluorescence polarization); assay type: biochemical; conditions: 1 μM ATP; read-out: MRCK-B Average Ki
Text: as §1

[3] = target: ROCK1 (Homo sapiens (Human), UniProt Q13464); conditions: read-out: ROCK1 Average Ki; 1 μM ATP
Sequence of ROCK1 (Q13464 2-1354 limits assumed): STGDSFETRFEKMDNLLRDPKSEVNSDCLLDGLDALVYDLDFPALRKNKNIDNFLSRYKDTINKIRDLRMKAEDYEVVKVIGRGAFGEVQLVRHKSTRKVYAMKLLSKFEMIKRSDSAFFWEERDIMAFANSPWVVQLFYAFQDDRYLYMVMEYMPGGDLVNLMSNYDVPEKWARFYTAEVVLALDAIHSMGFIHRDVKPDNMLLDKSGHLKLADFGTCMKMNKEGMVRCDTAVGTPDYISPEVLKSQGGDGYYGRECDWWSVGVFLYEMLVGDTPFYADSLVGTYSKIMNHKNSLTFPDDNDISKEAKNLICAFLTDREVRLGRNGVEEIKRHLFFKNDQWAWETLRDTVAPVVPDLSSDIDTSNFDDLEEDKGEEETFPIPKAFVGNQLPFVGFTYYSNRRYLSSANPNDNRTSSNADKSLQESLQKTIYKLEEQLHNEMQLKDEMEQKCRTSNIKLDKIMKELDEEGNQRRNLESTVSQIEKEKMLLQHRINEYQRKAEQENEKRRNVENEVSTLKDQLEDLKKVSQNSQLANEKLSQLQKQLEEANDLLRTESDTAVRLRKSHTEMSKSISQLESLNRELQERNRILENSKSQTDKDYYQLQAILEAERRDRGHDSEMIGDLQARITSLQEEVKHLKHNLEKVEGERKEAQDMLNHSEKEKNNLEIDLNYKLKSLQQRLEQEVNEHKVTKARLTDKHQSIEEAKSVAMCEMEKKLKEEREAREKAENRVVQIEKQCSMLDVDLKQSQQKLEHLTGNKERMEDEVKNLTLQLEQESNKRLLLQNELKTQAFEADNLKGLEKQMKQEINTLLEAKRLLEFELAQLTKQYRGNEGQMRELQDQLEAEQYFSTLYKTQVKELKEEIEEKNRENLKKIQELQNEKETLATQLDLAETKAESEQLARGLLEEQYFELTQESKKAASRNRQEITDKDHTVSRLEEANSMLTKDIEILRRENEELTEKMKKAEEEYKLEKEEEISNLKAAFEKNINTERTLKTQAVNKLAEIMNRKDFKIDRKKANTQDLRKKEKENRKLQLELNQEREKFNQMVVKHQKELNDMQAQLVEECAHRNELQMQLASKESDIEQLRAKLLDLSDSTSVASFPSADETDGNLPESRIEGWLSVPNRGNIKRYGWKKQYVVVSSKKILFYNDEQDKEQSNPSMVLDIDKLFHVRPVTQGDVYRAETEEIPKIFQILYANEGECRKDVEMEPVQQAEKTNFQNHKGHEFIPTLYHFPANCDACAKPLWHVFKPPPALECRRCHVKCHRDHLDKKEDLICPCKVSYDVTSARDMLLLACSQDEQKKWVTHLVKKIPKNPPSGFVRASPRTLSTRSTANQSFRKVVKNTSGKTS

[4] = target: ROCK2 (Homo sapiens (Human), UniProt O75116); assay: ROCK2 kinase assay (IMAP fluorescence polarization); assay type: biochemical; conditions: 1 μM ATP; read-out: ROCK2 Average Ki
Sequence of ROCK2 (O75116 whole entry): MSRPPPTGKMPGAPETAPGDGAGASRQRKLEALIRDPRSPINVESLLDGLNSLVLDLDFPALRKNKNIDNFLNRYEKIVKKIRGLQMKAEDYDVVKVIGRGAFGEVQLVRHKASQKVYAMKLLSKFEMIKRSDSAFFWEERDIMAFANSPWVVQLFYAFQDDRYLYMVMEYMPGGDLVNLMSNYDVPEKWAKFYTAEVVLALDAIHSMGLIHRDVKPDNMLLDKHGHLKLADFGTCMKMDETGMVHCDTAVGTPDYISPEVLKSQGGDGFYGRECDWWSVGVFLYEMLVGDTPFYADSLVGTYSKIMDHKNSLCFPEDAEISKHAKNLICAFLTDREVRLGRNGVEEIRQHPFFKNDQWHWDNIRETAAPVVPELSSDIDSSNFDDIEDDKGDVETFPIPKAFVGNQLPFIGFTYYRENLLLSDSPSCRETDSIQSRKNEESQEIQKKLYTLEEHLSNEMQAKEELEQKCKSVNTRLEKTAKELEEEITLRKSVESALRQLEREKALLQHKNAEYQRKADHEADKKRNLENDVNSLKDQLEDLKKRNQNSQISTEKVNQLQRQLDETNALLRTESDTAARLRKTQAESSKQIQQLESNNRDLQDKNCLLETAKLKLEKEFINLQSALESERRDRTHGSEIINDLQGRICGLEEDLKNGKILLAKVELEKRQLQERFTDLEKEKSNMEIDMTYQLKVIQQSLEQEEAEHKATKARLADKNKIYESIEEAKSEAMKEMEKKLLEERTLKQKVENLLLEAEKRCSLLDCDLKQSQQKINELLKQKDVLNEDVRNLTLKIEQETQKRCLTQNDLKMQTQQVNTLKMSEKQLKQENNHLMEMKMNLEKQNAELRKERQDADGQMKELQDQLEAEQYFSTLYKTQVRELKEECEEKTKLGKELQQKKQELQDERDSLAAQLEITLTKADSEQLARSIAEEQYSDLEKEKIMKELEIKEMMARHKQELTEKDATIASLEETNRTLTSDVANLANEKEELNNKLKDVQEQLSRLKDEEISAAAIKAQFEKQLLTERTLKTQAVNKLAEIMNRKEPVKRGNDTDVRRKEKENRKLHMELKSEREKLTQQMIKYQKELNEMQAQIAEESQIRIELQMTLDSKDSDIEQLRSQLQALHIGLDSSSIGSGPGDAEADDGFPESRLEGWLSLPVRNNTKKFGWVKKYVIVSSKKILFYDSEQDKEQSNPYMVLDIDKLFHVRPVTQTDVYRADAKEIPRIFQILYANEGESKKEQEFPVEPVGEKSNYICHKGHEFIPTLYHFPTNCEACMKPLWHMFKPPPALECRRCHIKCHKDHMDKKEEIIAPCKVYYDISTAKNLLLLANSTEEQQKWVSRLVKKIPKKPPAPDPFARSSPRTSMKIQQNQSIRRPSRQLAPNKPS

Sequence of MRCKα (Q5VT25 whole entry): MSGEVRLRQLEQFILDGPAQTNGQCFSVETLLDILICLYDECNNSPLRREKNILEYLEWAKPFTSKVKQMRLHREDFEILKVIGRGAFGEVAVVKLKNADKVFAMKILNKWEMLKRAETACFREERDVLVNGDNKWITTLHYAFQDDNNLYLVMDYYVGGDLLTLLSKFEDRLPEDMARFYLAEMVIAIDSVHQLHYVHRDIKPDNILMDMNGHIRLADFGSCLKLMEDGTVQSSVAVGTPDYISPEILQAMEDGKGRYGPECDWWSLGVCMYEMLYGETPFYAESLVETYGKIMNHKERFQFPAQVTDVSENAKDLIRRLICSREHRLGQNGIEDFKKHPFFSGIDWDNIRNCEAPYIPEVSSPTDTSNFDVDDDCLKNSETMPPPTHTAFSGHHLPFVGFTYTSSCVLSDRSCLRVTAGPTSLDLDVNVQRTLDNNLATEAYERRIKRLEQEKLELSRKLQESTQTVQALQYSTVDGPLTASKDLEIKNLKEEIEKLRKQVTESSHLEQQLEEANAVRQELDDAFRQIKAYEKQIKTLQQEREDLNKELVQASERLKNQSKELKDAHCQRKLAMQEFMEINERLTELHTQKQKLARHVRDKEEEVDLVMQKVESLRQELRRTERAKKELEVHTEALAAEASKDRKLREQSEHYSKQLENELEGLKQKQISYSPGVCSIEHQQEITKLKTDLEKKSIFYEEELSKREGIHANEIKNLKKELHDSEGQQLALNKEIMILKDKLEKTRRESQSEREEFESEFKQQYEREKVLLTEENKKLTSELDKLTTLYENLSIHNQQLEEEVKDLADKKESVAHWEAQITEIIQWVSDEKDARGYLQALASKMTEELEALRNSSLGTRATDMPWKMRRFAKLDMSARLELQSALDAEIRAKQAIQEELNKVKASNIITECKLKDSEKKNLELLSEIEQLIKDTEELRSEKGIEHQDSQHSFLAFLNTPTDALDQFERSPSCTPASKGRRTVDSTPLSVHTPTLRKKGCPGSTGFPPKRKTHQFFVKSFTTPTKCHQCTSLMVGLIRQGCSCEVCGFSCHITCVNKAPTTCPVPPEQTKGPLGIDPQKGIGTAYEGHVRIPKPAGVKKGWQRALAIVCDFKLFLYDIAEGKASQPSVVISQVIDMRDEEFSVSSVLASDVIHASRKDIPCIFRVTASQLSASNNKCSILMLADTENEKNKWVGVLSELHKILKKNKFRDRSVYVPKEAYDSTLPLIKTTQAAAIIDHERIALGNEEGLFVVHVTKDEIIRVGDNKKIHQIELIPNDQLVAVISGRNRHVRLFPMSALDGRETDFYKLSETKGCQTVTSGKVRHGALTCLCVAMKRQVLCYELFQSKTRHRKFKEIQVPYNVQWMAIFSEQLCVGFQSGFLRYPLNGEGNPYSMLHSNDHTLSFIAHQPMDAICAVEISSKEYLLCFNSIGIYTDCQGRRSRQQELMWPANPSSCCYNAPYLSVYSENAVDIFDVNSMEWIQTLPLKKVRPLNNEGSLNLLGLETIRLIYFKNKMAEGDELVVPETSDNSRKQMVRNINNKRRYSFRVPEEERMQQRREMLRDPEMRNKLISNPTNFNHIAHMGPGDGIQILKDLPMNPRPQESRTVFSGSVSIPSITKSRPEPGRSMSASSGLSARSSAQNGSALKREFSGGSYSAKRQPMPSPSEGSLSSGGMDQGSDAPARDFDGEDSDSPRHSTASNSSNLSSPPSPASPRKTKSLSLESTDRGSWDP

Compound | Ki [1] [nM] | Ki [2] [nM] | Ki [3] [nM] | Ki [4] [nM]
CNC1CCCN(c2ccnc3[nH]cc(-c4cncnc4)c23)CC1 (stereo not drawn) [Example E68, N-methyl-1-(3-pyrimidin-5-yl-1H-pyrrolo[2,3-b]pyridin-4-yl)azepan-4-amine] | 0.382 | 1.09 | 55.9 | 36.9
c1ncc(-c2c[nH]c3nccc(N4CCCC5(CCCN5)C4)c23)cn1 (stereo not drawn) [Example E195, 9-(3-pyrimidin-5-yl-1H-pyrrolo[2,3-b]pyridin-4-yl)-1,9-diazaspiro[4.5]decane] | 4.69 | 3.27 | 332 | 174
NCC1CCCN(c2ccnc3[nH]cc(-c4cncnc4)c23)C1 (stereo not drawn) [Example E86, [1-(3-pyrimidin-5-yl-1H-pyrrolo[2,3-b]pyridin-4-yl)-3-piperidyl]methanamine] | 4.6 | 1.85 | 8.2 | 10.5
c1ncc(-c2c[nH]c3nccc(N4CCCCC4)c23)cn1 [Example E20, 4-(1-piperidyl)-3-pyrimidin-5-yl-1H-pyrrolo[2,3-b]pyridine] | 14.2 | 40.7 |  | 516
COCCN[C@H]1CCCN(c2ccnc3[nH]cc(-c4cncnc4)c23)C1 [Example E73, (3S)-N-(2-methoxyethyl)-1-(3-pyrimidin-5-yl-1H-pyrrolo[2,3-b]pyridin-4-yl)piperidin-3-amine] |  | 5.71 | 2060 | 964
NC1CCN(c2ccnc3[nH]cc(-c4cncnc4)c23)CC1 [Example E65, 1-(3-pyrimidin-5-yl-1H-pyrrolo[2,3-b]pyridin-4-yl)piperidin-4-amine] |  | 1.65 | 128 | 138
CN1CCN(c2ccnc3[nH]cc(C#N)c23)CC1 [Example E32, 4-(4-methylpiperazin-1-yl)-1H-pyrrolo[2,3-b]pyridine-3-carbonitrile] |  | 147 | 237 | 164
Nc1cccc(-c2c[nH]c3nccc(N4CCCCC4)c23)n1 [Example E3, 6-[4-(1-piperidyl)-1H-pyrrolo[2,3-b]pyridin-3-yl]pyridin-2-amine] |  | 39.9 | 28.6 | 13.8
4-morpholino-1H-pyrrolo[2,3-b]pyridine-3-carbonitrile [Example E33] |  | 87.1 | 196 | 127
c1ncc(-c2c[nH]c3nccc(N4CCC[C@H](N5CCOCC5)C4)c23)cn1 [Example E96, 4-[(3S)-1-(3-pyrimidin-5-yl-1H-pyrrolo[2,3-b]pyridin-4-yl)-3-piperidyl]morpholine] |  | 28.8 | 1300 | 876
CCN[C@H]1CCCN(c2ccnc3[nH]cc(-c4ccnnc4)c23)C1 [Example E71, (3S)—N-ethyl-1-(3-pyridazin-4-yl-1H-pyrrolo[2,3-b]pyridin-4-yl)piperidin-3-amine] |  | 0.802 | 152 | 73.9
N#Cc1c[nH]c2nccc(N3CCCC3Cc3ccccc3)c12 (stereo not drawn) [Example E107, 4-(2-benzylpyrrolidin-1-yl)-1H-pyrrolo[2,3-b]pyridine-3-carbonitrile] |  | 90.3 | 1880 | 2820
Cn1cc(-c2c[nH]c3nccc(N4CCCCC4)c23)cn1 [Example E24, 3-(1-methylpyrazol-4-yl)-4-(1-piperidyl)-1H-pyrrolo[2,3-b]pyridine] |  | 37.6 | 43.5 | 20.8
N#Cc1c[nH]c2nccc(N3CCC3)c12 [Example E240] |  | 8.31 | 38.7 | 21.6
Cn1nccc1-c1c[nH]c2nccc(N3CCCCC3)c12 [Example E18, 3-(2-methylpyrazol-3-yl)-4-(1-piperidyl)-1H-pyrrolo[2,3-b]pyridine] |  | 818 | 10000 | 2480
c1ncc(-c2c[nH]c3nccc(N4CCC5(CCNC5)CC4)c23)cn1 [Example E190, 8-(3-pyrimidin-5-yl-1H-pyrrolo[2,3-b]pyridin-4-yl)-2,8-diazaspiro[4.5]decane] |  | 0.973 | 9.3 | 8.7
N#Cc1c[nH]c2nccc(N3CCCC3c3ccccc3)c12 (stereo not drawn) [Example E113, 4-(2-phenylpyrrolidin-1-yl)-1H-pyrrolo[2,3-b]pyridine-3-carbonitrile] |  | 111 | 388 | 144
c1cnnc(-c2c[nH]c3nccc(N4CCCCC4)c23)c1 [Example E15, 4-(1-piperidyl)-3-pyridazin-3-yl-1H-pyrrolo[2,3-b]pyridine] |  | 56.5 | 482 | 362
CN[C@H]1CCCN(c2ccnc3[nH]cc(-c4cncnc4)c23)[C@H]1C (relative stereo) [Example E179, cis-N,2-dimethyl-1-(3-pyrimidin-5-yl-1H-pyrrolo[2,3-b]pyridin-4-yl)piperidin-3-amine] |  | 128 | 1290 | 1090

Compound | Ki [1] [nM] | Ki [2] [nM] | Ki [3] [nM] | Ki [4] [nM]
Nc1ccc(-c2c[nH]c3nccc(N4CCCCC4)c23)cn1 [Example E10, 5-[4-(1-piperidyl)-1H-pyrrolo[2,3-b]pyridin-3-yl]pyridin-2-amine] |  | 51.8 | 74.9 | 45.7
Fc1cncc(-c2c[nH]c3nccc(N4CCCCC4)c23)c1 [Example E11, 3-(5-fluoro-3-pyridyl)-4-(1-piperidyl)-1H-pyrrolo[2,3-b]pyridine] |  | 42.3 | 755 | 374
N[C@H]1CCN(c2ccnc3[nH]cc(-c4cncnc4)c23)C1 [Example E58, (3S)-1-(3-pyrimidin-5-yl-1H-pyrrolo[2,3-b]pyridin-4-yl)pyrrolidin-3-amine] |  | 3.48 | 158 | 85.8
Cn1cc(-c2c[nH]c3nccc(N4CCC[C@](N)(N5CCC(N)CC5)C4)c23)cn1 [Example E241] |  | 11.9 | 543 | 224
c1cc(N2CCC2)c2c(-c3cc[nH]n3)c[nH]c2n1 [Example E28, 4-(azetidin-1-yl)-3-(1H-pyrazol-3-yl)-1H-pyrrolo[2,3-b]pyridine] |  | 29.4 | 14.4 | 9.8
CNC1CCN(c2ccnc3[nH]cc(-c4cncnc4)c23)CC1 [Example E63, N-methyl-1-(3-pyrimidin-5-yl-1H-pyrrolo[2,3-b]pyridin-4-yl)piperidin-4-amine] |  | 1.98 | 138 | 91.2
CN1CCN(C(=O)[C@@H]2CCCN2c2ccnc3[nH]cc(C#N)c23)CC1 [Example E204, 4-[(2S)-2-(4-methylpiperazine-1-carbonyl)pyrrolidin-1-yl]-1H-pyrrolo[2,3-b]pyridine-3-carbonitrile] |  | 119 | 558 | 762
CN[C@H]1CCCN(c2ccnc3[nH]cc(-c4cnc(C)nc4)c23)C1 [Example E75, (3S)-N-methyl-1-[3-(2-methylpyrimidin-5-yl)-1H-pyrrolo[2,3-b]pyridin-4-yl]piperidin-3-amine] |  | 25.4 | 21700 | 6420
FC1CCN([C@H]2CCCN(c3ccnc4[nH]cc(-c5cncnc5)c34)C2)CC1 [Example E94, 4-[(3S)-3-(4-fluoro-1-piperidyl)-1-piperidyl]-3-pyrimidin-5-yl-1H-pyrrolo[2,3-b]pyridine] |  | 9.33 | 913 | 495
c1ccc(-c2c[nH]c3nccc(N4CCCCC4)c23)nc1 [Example E23, 4-(1-piperidyl)-3-(2-pyridyl)-1H-pyrrolo[2,3-b]pyridine] |  | 134 | 1690 | 699
CN[C@H]1CCCN(c2ccnc3[nH]cc(-c4cncc(F)c4)c23)C1 [Example E50, (3S)-1-[3-(5-fluoro-3-pyridyl)-1H-pyrrolo[2,3-b]pyridin-4-yl]-N-methyl-piperidin-3-amine] |  | 0.729 | 2050 | 578
O[C@H]1CCCN(c2ccnc3[nH]cc(-c4cncnc4)c23)C1 [Example E101, (3S)-1-(3-pyrimidin-5-yl-1H-pyrrolo[2,3-b]pyridin-4-yl)piperidin-3-ol] |  | 22.5 | 567 | 363
c1ncc(-c2c[nH]c3nccc(N4CC5CNCC5C4)c23)cn1 (stereo not drawn) [Example E199, 4-(2,3,3a,4,6,6a-hexahydro-1H-pyrrolo[3,4-c]pyrrol-5-yl)-3-pyrimidin-5-yl-1H-pyrrolo[2,3-b]pyridine] |  | 6.32 | 222 | 199
c1ncc(-c2c[nH]c3nccc(N4CCCC(N5CCNCC5)C4)c23)cn1 (stereo not drawn) [Example E91, 4-(3-piperazin-1-yl-1-piperidyl)-3-pyrimidin-5-yl-1H-pyrrolo[2,3-b]pyridine] |  | 49.5 | 231 | 163
CC(C)N[C@H]1CCCN(c2ccnc3[nH]cc(-c4cncnc4)c23)C1 [Example E76, (3S)-N-isopropyl-1-(3-pyrimidin-5-yl-1H-pyrrolo[2,3-b]pyridin-4-yl)piperidin-3-amine] |  | 871 | 32400 | 16800
NCCC1CCN(c2ccnc3[nH]cc(-c4cncnc4)c23)CC1 [Example E238] |  | 1.02 | 14.2 | 18.4
COC[C@@H]1CCCN1c1ccnc2[nH]cc(C#N)c12 [Example E108, 4-[(2S)-2-(methoxymethyl)pyrrolidin-1-yl]-1H-pyrrolo[2,3-b]pyridine-3-carbonitrile] |  | 3.89 | 21.8 | 18.8
c1ncc(-c2c[nH]c3nccc(OC[C@H]4CCNC4)c23)cn1 [Example E215, 3-pyrimidin-5-yl-4-[[(3S)-pyrrolidin-3-yl]methoxy]-1H-pyrrolo[2,3-b]pyridine] |  | 3.86 | 47.8 | 34.7
